Patent publication US8969565B2, “Imidazo[1,2-b]pyridazine-based compounds, compositions comprising them, and methods of their use” (Lexicon Pharmaceuticals, Inc., priority 2012, dated 2015)

How the values were obtained:
AAK1 [1] = target: T1, AAK1 (Homo sapiens, UniProt Q2M2I8); assay: HEK281 cell-based assay (phospho-mu2 Western blot in transfected HEK293F cells); settings: 3 hours incubation, read-out: CBA IC50
T1 construct: HA; expressed in transfected cells; host or cells: HEK293F
Summary of the method: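 After 3 hours at 37° C. with compound (five 3-fold-spaced concentrations, DMEM+0.5% FBS), transiently transfected HEK293F cells expressing full-length human AAK1 and Flag-tagged mu2 were lysed. mu2 phosphorylation was read by anti-phospho-mu2 immunoblot, normalized against total mu2 by anti-Flag blot.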

AAK1 [2] = target: T1, AAK1; assay: P81 filter plate assay; format: biochemical; settings: full-length human AAK1, Mu2 substrate

T1 sequence (Q2M2I8 1-863 isoform Q2M2I8-2): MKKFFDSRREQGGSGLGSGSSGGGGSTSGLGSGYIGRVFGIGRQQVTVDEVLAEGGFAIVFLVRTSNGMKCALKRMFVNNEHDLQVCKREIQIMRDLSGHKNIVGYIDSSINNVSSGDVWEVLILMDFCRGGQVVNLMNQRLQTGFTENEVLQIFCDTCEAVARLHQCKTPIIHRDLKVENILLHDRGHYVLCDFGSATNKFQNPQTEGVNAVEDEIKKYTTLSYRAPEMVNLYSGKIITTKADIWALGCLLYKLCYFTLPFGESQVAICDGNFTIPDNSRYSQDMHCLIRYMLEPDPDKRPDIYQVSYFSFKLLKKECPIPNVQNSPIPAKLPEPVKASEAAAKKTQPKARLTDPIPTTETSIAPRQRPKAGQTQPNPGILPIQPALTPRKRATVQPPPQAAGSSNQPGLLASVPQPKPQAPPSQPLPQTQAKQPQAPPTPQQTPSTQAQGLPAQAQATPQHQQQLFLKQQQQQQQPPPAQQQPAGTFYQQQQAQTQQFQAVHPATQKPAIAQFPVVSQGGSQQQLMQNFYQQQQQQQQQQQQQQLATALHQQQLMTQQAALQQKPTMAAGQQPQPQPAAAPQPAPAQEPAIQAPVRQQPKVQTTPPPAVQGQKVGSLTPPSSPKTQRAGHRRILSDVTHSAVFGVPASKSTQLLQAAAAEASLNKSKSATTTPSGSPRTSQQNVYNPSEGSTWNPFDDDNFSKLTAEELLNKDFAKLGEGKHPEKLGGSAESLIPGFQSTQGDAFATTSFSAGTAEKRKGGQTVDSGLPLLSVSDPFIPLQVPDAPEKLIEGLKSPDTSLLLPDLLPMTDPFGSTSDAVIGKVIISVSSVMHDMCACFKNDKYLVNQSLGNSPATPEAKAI

SMILES	IC50 (AAK1 [1])	IC50 (AAK1 [2])
CC(C)(C)COC(=O)N1CCC[C@H]1CNc1ccc2ncc(-c3ccncc3)n2n1 [(S)-neopentyl 2-(((3-(pyridin-4-yl)imidazo[1,2-b]pyridazin-6-yl)amino)methyl)pyrrolidine-1-carboxylate]	≤ 100 nM	≤ 10 nM
CC(C)(C)OC(=O)N1CCC[C@H]1CNc1ccc2ncc(-c3ccc(CN)cc3)n2n1 [(S)-tert-butyl 2-(((3-(4-(aminomethyl)phenyl)imidazo[1,2-b]pyridazin-6-yl)amino)methyl)pyrrolidine-1-carboxylate]	≤ 10 nM	≤ 10 nM
CC(C)(C)OC(=O)N1CCC[C@H]1CNc1ccc2ncc(-c3ccc(C(N)=O)cc3)n2n1 [(S)-tert-butyl 2-(((3-(4-carbamoylphenyl)imidazo[1,2-b]pyridazin-6-yl)amino)methyl)pyrrolidine-1-carboxylate]	≤ 10 nM	≤ 10 nM
CNC(=O)c1cnc2ccc(NC[C@@H]3CCCN3C(=O)OC(C)(C)C)nn12 [(S)-tert-butyl 2-(((3-(methylcarbamoyl)imidazo[1,2-b]pyridazin-6-yl)amino)methyl)pyrrolidine-1-carboxylate]	≤ 100 nM	≤ 10 nM
CC(C)(C)OC(=O)N1CC[C@H]1CNc1ccc2ncc(Br)n2n1 [(S)-tert-butyl 2-(((3-bromoimidazo[1,2-b]pyridazin-6-yl)amino)methyl)azetidine-1-carboxylate]	≤ 100 nM	≤ 10 nM
Cc1cnc2ccc(NC[C@@H]3CCCN3C(=O)OC(C)(C)C)nn12 [(S)-tert-butyl 2-(((3-methylimidazo[1,2-b]pyridazin-6-yl)amino)methyl)pyrrolidine-1-carboxylate]	≤ 100 nM	≤ 10 nM
CC(C)(C)OC(=O)N1CCC[C@H]1CNc1ccc2ncc(-c3ccccc3)n2n1 [(S)-tert-butyl 2-(((3-phenylimidazo[1,2-b]pyridazin-6-yl)amino)methyl)pyrrolidine-1-carboxylate]	≤ 10 nM	≤ 10 nM
COc1ccccc1-c1cnc2ccc(N3CC[C@H](N(C)C(=O)OC(C)(C)C)C3)nn12 [(S)-tert-butyl (1-(3-(2-methoxyphenyl)imidazo[1,2-b]pyridazin-6-yl)pyrrolidin-3-yl)(methyl)carbamate]	≤ 100 nM	≤ 10 nM
CN(C(=O)OC(C)(C)C)[C@H]1CCN(c2ccc3ncc(-c4ccncc4)n3n2)C1 [(S)-tert-butyl methyl(1-(3-(pyridin-4-yl)imidazo[1,2-b]pyridazin-6-yl)pyrrolidin-3-yl)carbamate]	≤ 1000 nM	≤ 10 nM
C=COC(=O)N1CCC[C@H]1CNc1ccc2ncc(-c3ccccc3OC)n2n1 [(S)-vinyl 2-(((3-(2-methoxyphenyl)imidazo[1,2-b]pyridazin-6-yl)amino)methyl)pyrrolidine-1-carboxylate]	≤ 100 nM	≤ 10 nM
COc1ccccc1-c1cnc2ccc(N3CC[C@H](N(C)C(=O)N4CCCC4)C3)nn12 [(S)—N-(1-(3-(2-methoxyphenyl)imidazo[1,2-b]pyridazin-6-yl)pyrrolidin-3-yl)-N-methylpyrrolidine-1-carboxamide]	≤ 100 nM	≤ 10 nM
COc1ncccc1-c1cnc2ccc(N3CC[C@H](N(C)C(=O)N4CCCC4)C3)nn12 [(S)—N-(1-(3-(2-methoxypyridin-3-yl)imidazo[1,2-b]pyridazin-6-yl)pyrrolidin-3-yl)-N-methylpyrrolidine-1-carboxamide]	≤ 100 nM	≤ 10 nM
CN(C)C(=O)c1cccc(-c2cnc3ccc(N4CCN(C(=O)N5CCCC5)CC4)nn23)c1 [N,N-dimethyl-3-(6-(4-(pyrrolidine-1-carbonyl)piperazin-1-yl)imidazo[1,2-b]pyridazin-3-yl)benzamide]	≤ 100 nM	≤ 10 nM
c1cc(-c2cnc3ccc(NCCOC4CCCC4)nn23)n[nH]1 [N-(2-(cyclopentyloxy)ethyl)-3-(1H-pyrazol-3-yl)imidazo[1,2-b]pyridazin-6-amine]	≤ 1000 nM	≤ 100 nM
Fc1ncccc1-c1cnc2ccc(NCCOC3CCCC3)nn12 [N-(2-(cyclopentyloxy)ethyl)-3-(2-fluoropyridin-3-yl)imidazo[1,2-b]pyridazin-6-amine]	≤ 1000 nM	≤ 10 nM
COc1cncc(-c2cnc3ccc(NCCOC4CCCC4)nn23)c1 [N-(2-(cyclopentyloxy)ethyl)-3-(5-methoxypyridin-3-yl)imidazo[1,2-b]pyridazin-6-amine]	≤ 100 nM	≤ 10 nM
c1ccc(-c2cnc3ccc(NCCOC4CCCC4)nn23)nc1 [N-(2-(cyclopentyloxy)ethyl)-3-(pyridin-2-yl)imidazo[1,2-b]pyridazin-6-amine]	≤ 100 nM	≤ 10 nM
CC(=O)Nc1cccc(-c2cnc3ccc(NCCOC4CCCC4)nn23)c1 [N-(3-(6-((2-(cyclopentyloxy)ethyl)amino)imidazo[1,2-b]pyridazin-3-yl)phenyl)acetamide]	≤ 100 nM	≤ 100 nM
CC(C)(C)NC(=O)N1CCN(c2ccc3ncc(-c4ccccc4)n3n2)CC1 [N-(tert-Butyl)-4-(3-phenylimidazo[1,2-b]pyridazin-6-yl)piperazine-1-carboxamide]	≤ 100 nM	≤ 10 nM
COc1ccccc1-c1cnc2ccc(N3CCN(C(=O)N(C)C(C)C)CC3)nn12 [N-isopropyl-4-(3-(2-methoxyphenyl)imidazo[1,2-b]pyridazin-6-yl)-N-methylpiperazine-1-carboxamide]	≤ 100 nM	≤ 10 nM
COc1ccccc1-c1cnc2ccc(N3CCN(C(=O)NC(C)C)CC3)nn12 [N-isopropyl-4-(3-(2-methoxyphenyl)imidazo[1,2-b]pyridazin-6-yl)piperazine-1-carboxamide]	≤ 1000 nM	≤ 10 nM
CC(C)SC(=O)N1CCN(c2ccc3ncc(-c4ccccc4)n3n2)CC1 [S-Isopropyl 4-(3-phenylimidazo[1,2-b]pyridazin-6-yl)piperazine-1-carbothioate]	≤ 1000 nM	≤ 10 nM
O=C(N1CCCC1)N1CCN(c2ccc3ncc(-c4ccccn4)n3n2)CC1 [[4-(3-Pyridin-2-yl-imidazo[1,2-b]pyridazin-6-yl)-piperazin-1-yl]-pyrrolidin-1-yl-methanone]	≤ 100 nM	≤ 10 nM
CN(C(=O)OC(C)(C)C)[C@H]1CCN(c2ccc3ncc(Br)n3n2)C1 [[(S)-1-(3-Bromo-imidazo[1,2-b]pyridazin-6-yl)-pyrrolidin-3-yl]-methyl-carbamic acid tert-butyl ester]	≤ 1000 nM	≤ 10 nM
CCOC(=O)N1CCN(c2ccc3ncc(-c4ccccc4)n3n2)CC1 [ethyl 4-(3-phenylimidazo[1,2-b]pyridazin-6-yl)piperazine-1-carboxylate]	≤ 100 nM	≤ 10 nM
CC(C)OC(=O)N1CCN(c2ccc3ncc(-c4cccc5c4OC(F)(F)O5)n3n2)CC1 [isopropyl 4-(3-(2,2-difluorobenzo[d][1,3]dioxol-4-yl)imidazo[1,2-b]pyridazin-6-yl)piperazine-1-carboxylate]	≤ 1000 nM	≤ 10 nM
COc1cccc(-c2cnc3ccc(N4CCN(C(=O)OC(C)C)CC4)nn23)c1OC [isopropyl 4-(3-(2,3-dimethoxyphenyl)imidazo[1,2-b]pyridazin-6-yl)piperazine-1-carboxylate]	≤ 100 nM	≤ 10 nM
